# Measured values from patent US12053451B2, “Arginase inhibitors and their therapeutic applications” (OncoArendi Therapeutics S.A., priority 2016, dated 2024).
# Structures can show the parent of a compound that is named as a salt.
# Target: T1, recombinant human arginase 1 (Homo sapiens, UniProt P05089)
# T1 construct: purchased Biolegend 552502
# T1 sequence (P05089 1-322): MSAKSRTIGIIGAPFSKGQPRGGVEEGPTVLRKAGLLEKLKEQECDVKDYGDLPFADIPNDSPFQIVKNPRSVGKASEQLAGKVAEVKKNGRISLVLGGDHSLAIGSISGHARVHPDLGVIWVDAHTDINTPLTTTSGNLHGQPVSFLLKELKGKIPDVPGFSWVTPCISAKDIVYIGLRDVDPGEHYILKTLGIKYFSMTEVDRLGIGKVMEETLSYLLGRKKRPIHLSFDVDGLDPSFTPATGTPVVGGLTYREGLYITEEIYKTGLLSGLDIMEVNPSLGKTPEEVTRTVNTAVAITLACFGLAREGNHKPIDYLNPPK
# Test: Human arginase activity assay (urea measurement), arginase 1
# Assay type: biochemical
# Conditions: recombinant human arginase 1, pH 7.4, 37° C., 60 min; * = value for the most potent diastereoisomer or the mixture of diastereoisomers; read-out: Activity Class (ARG I)
# Method: Human Arginase Activity Assay
# The assay was run in the 96-well plate format, each reaction in the total volume of 100 uL. The assay is based on urea measurement, which is a product of L-arginine enzymatic degradation. […] The color product is developed by adding a mixture of reagent A (4 mM oPA in 50 mM boric acid in 1M sulfuric acid, 0.03% Brij-35) and reagent B (4 mM NED in 50 mM boric acid in 1M sulfuric acid, 0.03% Brij-35) in equal proportions. The absorbance for each well was measured at 530 nm.
# For positive control, only the enzyme and substrate were used, the negative controls contained substrate solution with assay buffer. After incubating the microtiter plate at 37° C. for 60 min 150 μL of mixed reagents A and B was added to each well to stop the reaction. Absorbance was measured (λ=530 nm) 20 minutes later, after color development. The urea production in the absence of any compound was considered the maximum arginase activity. The absorbance in the absence of arginase (background) was subtracted from all the values. The normalized OD was used to generate a concentration-response curve by plotting the percent of inhibition against log[concentration] of the compound and using regression analysis (GraphPad Prism 7.0) to compute the IC50 values.
row,Structure (SMILES),IC50
1,"COC(=O)[C@@]1(N)C[C@H](CCB(O)O)CC[C@H]1CN(C)C [Example 43, (2-((1R,3R,4S)-3-amino-4-((dimethylamino)methyl)-3-(methoxycarbonyl)cyclohexyl)ethyl)boronic acid dihydrochloride]",10 to 100 µM
2,"N[C@@]1(C(=O)O)C[C@H](CCB(O)O)CC[C@H]1O (racemic) [Example 14, rac-(1S,2R,5R)-1-Amino-5-(2-boronoethyl)-2-hydroxycyclohexane-1-carboxylic acid hydrochloride]",10 to 100 µM
3,"CN(C)C1CCC(CCB(O)O)CC1(N)C(=O)O (racemic) [Example 64, rac-(1R,5R)-1-amino-5-(2-boronoethyl)-2-(dimethylamino)cyclohexane-1-carboxylic acid dihydrochloride]",10 to 100 µM
4,"CC([C@@H]1CC[C@@H](CCB(O)O)C[C@]1(N)C(=O)O)N(C)C (stereo partly drawn) [Example 42, (1R,2S,5R)-1-amino-5-(2-boronoethyl)-2-(1-(dimethylamino)ethyl)cyclohexanecarboxylic acid dihydrochloride]",10 to 100 µM
5,"N[C@@]1(C(=O)O)COC[C@H](CCB(O)O)C1 (racemic) [Example 60, rac-(3R,5R)-3-amino-5-(2-boronoethyl)tetrahydro-2H-pyran-3-carboxylic acid hydrochloride]",10 to 100 µM
6,"NC1(C(=O)O)CC(CCB(O)O)CCC1CN1CCOCC1 (stereo not drawn) [Example 20, 1-Amino-5-(2-boronoethyl)-2-(morpholinomethyl)cyclohexane-1-carboxylic acid dihydrochloride]",1 to 10 µM
7,"NC1(C(=O)O)CC(CCB(O)O)CCC1CO (stereo not drawn) [Example 49, 1-amino-5-(2-boronoethyl)-2-(hydroxymethyl)cyclohexanecarboxylic acid hydrochloride]",1 to 10 µM
8,"N[C@@]1(C(=O)O)CNC[C@H](CCB(O)O)C1 (racemic) [Example 58, rac-(3R,5R)-3-amino-5-(2-boronoethyl)piperidine-3-carboxylic acid]",10 to 100 µM
9,"CN(C)CC1CC(CCB(O)O)CC1(N)C(=O)O (racemic) [Example 67, 1-amino-4-(2-boronoethyl)-2-((dimethylamino)methyl)cyclopentane-1-carboxylic acid]",10 to 100 µM

# More lines, now with the values ahead:
row,IC50,Structure (SMILES)
1,0.1 to 1 µM,"N[C@]1(C(=O)O)C[C@H](CCB(O)O)CC[C@H]1CN1Cc2ccccc2C1 (racemic) [Example 29, rac-(1R,2S,5R)-1-amino-5-(2-boronoethyl)-2-(isoindolin-2-ylmethyl)cyclohexanecarboxylic acid dihydrochloride]"
2,1 to 10 µM,"NC[C@H]1C[C@@](N)(C(=O)O)C[C@@H]1CCB(O)O (racemic) [Example 7, rac-(1R,3S,4S)-1-Amino-3-(aminomethyl)-4-(2-boronoethyl)cyclopentane-1-carboxylic acid dihydrochloride]"
3,0.001 to 0.1 µM,"N[C@]1(C(=O)O)C[C@H](CCB(O)O)CC[C@H]1CN1CCCC1 [Example 23, (1R,2S,5R)-1-Amino-5-(2-boronoethyl)-2-(pyrrolidin-1-ylmethyl)-cyclohexane-1-carboxylic acid dihydrochloride]"
4,1 to 10 µM,"CN(C)C[C@@H]1C[C@@H](CCB(O)O)CC(N)(C(=O)O)C1 (mixture of isomers) [Example 55, rac-(3R,5R)-1-amino-3-(2-boronoethyl)-5-((dimethylamino)methyl)cyclohexanecarboxylic acid dihydrochloride]"
5,0.1 to 1 µM,"N[C@]1(C(=O)O)C[C@H](CCB(O)O)CC[C@H]1CN1CCC(c2ccc(Cl)cc2)CC1 (racemic) [Example 27, rac-(1R,2S,5R)-1-amino-5-(2-boronoethyl)-2-((4-(4-chlorophenyl)piperidin-1-yl)methyl)cyclohexanecarboxylic acid dihydrochloride]"
6,0.001 to 0.1 µM,"CN(C)C[C@@H]1CC[C@@H](CCB(O)O)C[C@]1(N)C(=O)O (racemic) [Example 17, rac-(1R,2S,5R)-1-Amino-5-(2-boronoethyl)-2-((dimethylamino)methyl)-cyclohexane-1-carboxylic acid dihydrochloride]"
